For assay [1], the system named is PMPMEase. Briefly: Inhibition of PMPMEase by drugs, curcumin, fatty acids and prostaglandins. The assay is classed as biochemical. Conditions: relative to arachidonic acid (AA).
Assay [2] has as its system PMPMEase. Conditions: cited from earlier work; for concentrations that inhibit PMPMEase: concentration range given in words only.

Results on six compounds are retold here after patent US20150167050A1, “Cancer Diagnosis by Measuring Polyisoprenylated Methylated Protein Methyl Esterase Activity” (Florida Agricultural and Mechanical University, priority 2013, published 2015).

In the case of `CCCCC[C@H](O)/C=C/[C@H]1C=CC(=O)[C@@H]1C/C=C\CCCC(=O)O` [Prostaglandin (PG) A2], the “fold less potent than AA as PMPMEase inhibitor” value in assay [1] stood at 63 fold. As for `CCCCC/C=C\C/C=C\C/C=C\C/C=C\CCCC(=O)O` [arachidonic acid], in assay [2], the “concentrations that inhibit PMPMEase” value is “micromolar concentrations”. Take `CC/C(=C(\c1ccccc1)c1ccc(OCCN(C)C)cc1)c1ccccc1` [tamoxifen]: the “concentrations that inhibit PMPMEase” value in assay [2] is recorded as “millimolar concentrations”.

In the case of `O=P1(N(CCCl)CCCl)NCCCO1` (stereo not drawn) [cyclophosphamide], the “concentrations that inhibit PMPMEase” value in assay [2] is “millimolar concentrations”. Take `COc1cc(/C=C/C(=O)CC(=O)/C=C/c2ccc(O)c(OC)c2)ccc1O` [curcumin]: the “concentrations that inhibit PMPMEase” value in assay [2] is recorded as “micromolar concentrations”. `CCCCC[C@H](O)/C=C/[C@H]1[C@H](O)CC(=O)[C@@H]1C/C=C\CCCC(=O)O` [PGE2]: the “inhibition of PMPMEase at 1 mM” value in assay [2] (1 mM) was “did not inhibit”.
